ChEMBL document CHEMBL2331486, “Identification of diaryl 5-amino-1,2,4-oxadiazoles as tubulin inhibitors: the special case of 3-(2-fluorophenyl)-5-(4-methoxyphenyl)amino-1,2,4-oxadiazole” (Bioorg Med Chem Lett, 2013)
Activity calls are given as the source filed them. The rule behind the calls is not given here.

Assays:
Tubulin (Homo sapiens) [1] = target: T1, Tubulin (Homo sapiens) (UniProt P68371+Q9H4B7+P0DPH7+P68366+Q13509+Q71U36+P04350+Q3ZCM7+P07437+P68363+Q9BQE3+Q6PEY2+Q13885+Q9BVA1+Q9BUF5); settings: at 1 µM
Description: Displacement of [3H]colchicine from tubulin (unknown origin) at 1 uM after 10 mins

Tubulin (Homo sapiens) [2] = target: T1, Tubulin (Homo sapiens); settings: at 5 µM
Description: Displacement of [3H]colchicine from tubulin (unknown origin) at 5 uM after 10 mins

[3] = Growth inhibition of human NCI60 cells; format: functional
Tubulin = assay: Inhibition of tubulin (unknown origin) assembly after 20 mins by turbidimetric analysis; format: protein-complex assay, Homo sapiens
[4] = Growth inhibition of human KBV1a cells; format: functional; settings: pooled result: one value given for 5 cell lines, strains, targets or settings
SK-MEL-5 = assay: Cytotoxicity against human SK-MEL-5 cells; format: functional
NCI-H322M = assay: Cytotoxicity against human NCI-H322M cells; format: functional
NCI-H460 = assay: Cytotoxicity against human NCI-H460 cells; format: functional
OVCAR-4 = assay: Cytotoxicity against human OVCAR4 cells; format: functional
MDA-MB-468 = assay: Cytotoxicity against human MDA-MB-468 cells; format: functional
DU-145 [5] = assay: Cytotoxicity against human DU145 cells; format: functional
OVCAR-3 = assay: Cytotoxicity against human OVCAR3 cells; format: functional
HOP-62 = assay: Cytotoxicity against human HOP62 cells; format: functional
SK-MEL-2 = assay: Cytotoxicity against human SK-MEL-2 cells; format: functional
UACC-257 = assay: Cytotoxicity against human UACC257 cells; format: functional
SF-539 = assay: Cytotoxicity against human SF539 cells; format: functional
TK-10 = assay: Cytotoxicity against human TK10 cells; format: functional
RPMI-8226 = assay: Cytotoxicity against human RPMI8226 cells; format: functional
MDA-MB-435 = assay: Cytotoxicity against human MDA-MB-435 cells; format: functional
HL-60(TB) = assay: Cytotoxicity against human HL-60(TB) cells; format: functional
HCT-15 = assay: Cytotoxicity against human HCT15 cells; format: functional
SN12C = assay: Cytotoxicity against human SN12C cells; format: functional
K562 = assay: Cytotoxicity against human K562 cells; format: functional
SK-MEL-28 = assay: Cytotoxicity against human SK-MEL-28 cells; format: functional
SF-295 = assay: Cytotoxicity against human SF295 cells; format: functional
Malme-3M = assay: Cytotoxicity against human MALME-3M cells; format: functional
A498 = assay: Cytotoxicity against human A498 cells; format: functional
ACHN = assay: Cytotoxicity against human ACHN cells; format: functional
OVCAR-5 = assay: Cytotoxicity against human OVCAR5 cells; format: functional
SW-620 = assay: Cytotoxicity against human SW620 cells; format: functional
OVCAR-8 = assay: Cytotoxicity against human OVCAR8 cells; format: functional
RXF 393 = assay: Cytotoxicity against human RXF393 cells; format: functional
A549 = assay: Cytotoxicity against human A549 cells; format: functional
SNB-19 = assay: Cytotoxicity against human SNB19 cells; format: functional
IGROV-1 = assay: Cytotoxicity against human IGROV1 cells; format: functional
KM12 = assay: Cytotoxicity against human KM12 cells; format: functional
PC-3 [6] = assay: Cytotoxicity against human PC3 cells; format: functional
MDA-MB-231 [7] = assay: Cytotoxicity against human MDA-MB-231 cells; format: functional
U-251 = assay: Cytotoxicity against human U251 cells; format: functional
UACC-62 = assay: Cytotoxicity against human UACC62 cells; format: functional
HOP-92 = assay: Cytotoxicity against human HOP92 cells; format: functional
SNB-75 = assay: Cytotoxicity against human SNB75 cells; format: functional
MCF7 = assay: Cytotoxicity against human MCF7 cells; format: functional
[8] = Cytotoxicity against human Hs 578T cells; format: functional
COLO 205 = assay: Cytotoxicity against human COLO205 cells; format: functional
UO-31 = assay: Cytotoxicity against human UO31 cells; format: functional
[9] = Cytotoxicity against human EKVX cells; format: functional
HT-29 = assay: Cytotoxicity against human HT-29 cells; format: functional
SF-268 = assay: Cytotoxicity against human SF268 cells; format: functional
CAKI-1 = assay: Cytotoxicity against human Caki1 cells; format: functional
MOLT-4 = assay: Cytotoxicity against human MOLT4 cells; format: functional
CCRF-CEM = assay: Cytotoxicity against human CCRF-CEM cells; format: functional
SK-OV-3 = assay: Cytotoxicity against human SKOV3 cells; format: functional
NCI-H522 = assay: Cytotoxicity against human NCI-H522 cells; format: functional
NCI-H226 = assay: Cytotoxicity against human NCI-H226 cells; format: functional
T47D = assay: Cytotoxicity against human T47D cells; format: functional
PANC-1 = assay: Growth inhibition of human PANC1 cells; format: functional
HCT-116 = assay: Growth inhibition of human HCT116 cells; format: functional
MDA-MB-231 [10] = assay: Growth inhibition of human MDA-MB-231 cells; format: functional
PC-3 [11] = assay: Growth inhibition of human PC3 cells; format: functional
DU-145 [12] = assay: Growth inhibition of human DU145 cells; format: functional

## CCOc1ccc(Nc2nc(-c3cccc(OC)c3)no2)cc1
Tubulin (Homo sapiens) [1]
  inhibition: 37%
Tubulin (Homo sapiens) [2]
  inhibition: 78%
[3]
  GI50: 851 nM
Tubulin
  IC50: 1600 nM

## CCOc1ccc(Nc2nc(-c3ccccc3)no2)cc1
Tubulin (Homo sapiens) [1]
  inhibition: 49%
Tubulin (Homo sapiens) [2]
  inhibition: 82%
Tubulin
  IC50: 1200 nM

## COc1ccc(OC)c(Nc2nc(-c3cccc(OC)c3OC)no2)c1
Tubulin (Homo sapiens) [1]
  inhibition: inactive
Tubulin (Homo sapiens) [2]
  inhibition: inactive

## COc1ccc(-n2cnnc2-c2cc(OC)c(OC)c(OC)c2)cc1F
[4]
  GI50: 556 nM

## COc1ccc(Nc2nc(-c3cccc(OC)c3OC)no2)cc1
Tubulin (Homo sapiens) [1]
  inhibition: 31%
Tubulin (Homo sapiens) [2]
  inhibition: 68%
[3]
  GI50: 245 nM
Tubulin
  IC50: 2600 nM

## COc1ccc(OC)c(-c2noc(Nc3ccc(C)c(F)c3)n2)c1
Tubulin (Homo sapiens) [1]
  inhibition: inactive
Tubulin (Homo sapiens) [2]
  inhibition: 53%
Tubulin
  IC50: 3500 nM

## Cc1ccc(Nc2nc(-c3ccccc3F)no2)cc1F
Tubulin (Homo sapiens) [1]
  inhibition: 52%
Tubulin (Homo sapiens) [2]
  inhibition: 81%
[3]
  GI50: 851 nM
Tubulin
  IC50: 1600 nM

## COc1ccc(-n2cnnc2-c2cc(OC)c(OC)c(OC)c2)cc1
[4]
  GI50: 464 nM

## CCOC(=O)c1cccc(Nc2nc(-c3ccc(OC)cc3)no2)c1
Tubulin (Homo sapiens) [1]
  inhibition: inactive
Tubulin (Homo sapiens) [2]
  inhibition: inactive

## Cc1ccc(Nc2nc(-c3ccccc3F)no2)cc1
Tubulin (Homo sapiens) [1]
  inhibition: 57%
Tubulin (Homo sapiens) [2]
  inhibition: 85%
[3]
  GI50: 603 nM
Tubulin
  IC50: 1600 nM

## COc1ccc(Nc2nc(-c3ccccc3F)no2)cc1
SK-MEL-5
  GI50: 151 nM
NCI-H322M
  GI50: 501 nM
Tubulin (Homo sapiens) [1]
  inhibition: 68%
NCI-H460
  GI50: 61.7 nM
OVCAR-4
  GI50: 776 nM
MDA-MB-468
  GI50: 1070 nM
DU-145 [5]
  GI50: 141 nM
OVCAR-3
  GI50: 38 nM
HOP-62
  GI50: 135 nM
SK-MEL-2
  GI50: 39.8 nM
UACC-257
  GI50: 14100 nM
SF-539
  GI50: 107 nM
TK-10
  GI50: 832 nM
RPMI-8226
  GI50: 372 nM
MDA-MB-435
  GI50: 19.9 nM
Tubulin (Homo sapiens) [2]
  inhibition: 91%
HL-60(TB)
  GI50: 25.7 nM
HCT-15
  GI50: 85.1 nM
SN12C
  GI50: 240 nM
K562
  GI50: 30.9 nM
SK-MEL-28
  GI50: 339 nM
SF-295
  GI50: 61.7 nM
Malme-3M
  GI50: 58.9 nM
A498
  GI50: 229 nM
ACHN
  GI50: 490 nM
OVCAR-5
  GI50: 724 nM
SW-620
  GI50: 47.9 nM
[3]
  GI50: 204 nM
OVCAR-8
  GI50: 209 nM
RXF 393
  GI50: 155 nM
A549
  GI50: 91.2 nM
SNB-19
  GI50: 87.1 nM
IGROV-1
  GI50: 389 nM
KM12
  GI50: 112 nM
PC-3 [6]
  GI50: 447 nM
MDA-MB-231 [7]
  GI50: 676 nM
U-251
  GI50: 60.3 nM
UACC-62
  GI50: 53.7 nM
HOP-92
  GI50: 3800 nM
SNB-75
  GI50: 141 nM
Tubulin
  IC50: 1100 nM
MCF7
  GI50: 263 nM
[8]
  GI50: 389 nM
COLO 205
  GI50: 126 nM
UO-31
  GI50: 339 nM
[9]
  GI50: 1510 nM
HT-29
  GI50: 34.7 nM
SF-268
  GI50: 501 nM
CAKI-1
  GI50: 64.6 nM
MOLT-4
  GI50: 91.2 nM
CCRF-CEM
  GI50: 138 nM
SK-OV-3
  GI50: 204 nM
NCI-H522
  GI50: 19.9 nM
NCI-H226
  GI50: 2190 nM
T47D
  GI50: 15100 nM

## COc1cccc(-c2noc(Nc3ccc(C)cc3)n2)c1
Tubulin (Homo sapiens) [1]
  inhibition: 56%
Tubulin (Homo sapiens) [2]
  inhibition: 85%
Tubulin
  IC50: 1500 nM

## COc1ccc(Nc2nc(-c3ccccc3)no2)cc1Cl
Tubulin (Homo sapiens) [1]
  inhibition: 52%
Tubulin (Homo sapiens) [2]
  inhibition: 80%
Tubulin
  IC50: 1700 nM

## COc1ccc(OC)c(-c2noc(Nc3ccc4c(c3)OCCO4)n2)c1
Tubulin (Homo sapiens) [1]
  inhibition: 23%
Tubulin (Homo sapiens) [2]
  inhibition: 50%
Tubulin
  IC50: 3500 nM

## CCOc1ccc(Nc2nc(-c3cccc(OC)c3OC)no2)cc1
Tubulin (Homo sapiens) [1]
  inhibition: 20%
Tubulin (Homo sapiens) [2]
  inhibition: 56%
Tubulin
  IC50: 1800 nM

## COc1ccc(/C=C\c2cc(OC)c(OC)c(OC)c2)cc1O [COMBRETASTATIN A4]
[3]
  GI50: 14.8 nM

## COc1cccc(-c2noc(Nc3ccc4c(c3)OCCO4)n2)c1
Tubulin (Homo sapiens) [1]
  inhibition: 38%
Tubulin (Homo sapiens) [2]
  inhibition: 76%
Tubulin
  IC50: 1900 nM

## Fc1ccccc1Nc1nc(-c2ccccc2)no1
Tubulin (Homo sapiens) [1]
  inhibition: inactive
Tubulin (Homo sapiens) [2]
  inhibition: inactive

## Cc1ccc(Nc2nc(-c3ccccc3)no2)cc1
Tubulin (Homo sapiens) [1]
  inhibition: 61%
Tubulin (Homo sapiens) [2]
  inhibition: 88%
Tubulin
  IC50: 1400 nM

## COc1cccc(-c2noc(Nc3ccc(C)cc3)n2)c1OC
Tubulin (Homo sapiens) [1]
  inhibition: 24%
Tubulin (Homo sapiens) [2]
  inhibition: 52%
[3]
  GI50: 2630 nM
Tubulin
  IC50: 3600 nM

## CCc1ccc(Nc2nc(-c3cc(OC)ccc3OC)no2)cc1
Tubulin (Homo sapiens) [1]
  inhibition: 36%
Tubulin (Homo sapiens) [2]
  inhibition: 65%
[3]
  GI50: 575 nM
Tubulin
  IC50: 1800 nM

## CCc1ccc(Nc2nc(-c3ccccc3F)no2)cc1
Tubulin (Homo sapiens) [1]
  inhibition: 41%
Tubulin (Homo sapiens) [2]
  inhibition: 73%
Tubulin
  IC50: 2700 nM

## COc1cccc(-c2noc(Nc3ccc4c(c3)OCO4)n2)c1
Tubulin (Homo sapiens) [1]
  inhibition: 40%
Tubulin (Homo sapiens) [2]
  inhibition: 76%
[3]
  GI50: 1230 nM
Tubulin
  IC50: 2200 nM

## COc1ccc(OC)c(-c2noc(Nc3ccc4c(c3)OCO4)n2)c1
Tubulin (Homo sapiens) [1]
  inhibition: 21%
Tubulin (Homo sapiens) [2]
  inhibition: 52%
[3]
  GI50: 6460 nM
Tubulin
  IC50: 2500 nM

## COc1ccc(Nc2nc(-c3cccc(OC)c3)no2)cc1
Tubulin (Homo sapiens) [1]
  inhibition: 58%
PANC-1
  GI50: 9.77 nM
HCT-116
  GI50: 9.77 nM
MDA-MB-231 [10]
  GI50: 9.77 nM
Tubulin (Homo sapiens) [2]
  inhibition: 90%
Tubulin
  IC50: 1900 nM
PC-3 [11]
  GI50: 9.77 nM
DU-145 [12]
  GI50: 9.77 nM

## CCc1ccc(Nc2nc(-c3cccc(OC)c3)no2)cc1
Tubulin (Homo sapiens) [1]
  inhibition: 40%
Tubulin (Homo sapiens) [2]
  inhibition: 81%
Tubulin
  IC50: 1600 nM

## CCOc1ccc(Nc2nc(-c3ccccc3F)no2)cc1
Tubulin (Homo sapiens) [1]
  inhibition: 42%
Tubulin (Homo sapiens) [2]
  inhibition: 76%
Tubulin
  IC50: 1700 nM

## COc1cccc(-c2noc(Nc3ccc(OC)c(Cl)c3)n2)c1
Tubulin (Homo sapiens) [1]
  inhibition: 36%
Tubulin (Homo sapiens) [2]
  inhibition: 73%
[3]
  GI50: 562 nM
Tubulin
  IC50: 2300 nM
